Peptide text beside a SMILES is read from it. * marks the point of attachment. X1 = CC1(C)S[C@@H]2[C@H](NC(=O)C*)C(=O)N2[C@H]1C(=O)O; Carboxymethyl = O=C(O)C*
What was measured:
[1] = molecular target: T1, PBP2a (Staphylococcus aureus, UniProt P07944); experiment: Relative IC50 competition assay of peptide penicillanate conjugates against PBP2a (biotinylated ampicillin); type: binding; set-up: This part was cleaved off with DTT before the test
Method: Relative IC50 Assay of Peptide Penicillanate Conjugates
Various concentration of conjugates were prepared by dissolving in reaction buffer (50 mM phosphate, pH=8.0; 100 mM NaCl) and incubating with 2 Vg pure PBP2a respectively at 37° C. for 15 min. 20 μg biotinylated ampicillin was added immediately and incubated at 37° C. for 10 min. The reaction was stopped by heating the reaction mixture at 94° C. for 5 min. The samples were loaded into 12% SDS-PAGE for separation, then were transferred to a nitrocellulose membrane by blotting with sodium bicarbonate buffer (20% methanol; 3 mM Na2CO3; 10 mM NaHCO3) at 400 mA for 3 hr. The membrane was blocked with blocking solution (20 mM Tris, pH=8.0; 150 mM NaCl; 0.05% TWEEN-20 detergent; 5% milk) for 1 hr, then incubated with 10 ml TBS buffer (20 mM Tris, pH=8.0; 150 mM NaCl) containing 1 μg/ml streptavidin-HRP protein (Pierce Chemical) at room temperature for 1 hr. The membrane was washed 6 times with 50 ml TBS buffer, at 5 min intervals, and covered with FEMTO-WESTERN blotting reagent (Pierce Chemical). The membrane was then examined under a digital camera at dark to collect chemiluminescent emission for 10-15 min.

[2] = molecular target: Grb2 N terminal SH3 domain (Homo sapiens, UniProt P62993); conditions: substitution for proline at P2 and P−1; cited from earlier work
[3] = molecular target: Crk N terminal SH3 domain (Homo sapiens, UniProt P46108); conditions: substitution for proline at P2 and P−1; cited from earlier work
[4] = molecular target: T1, PBP2a; conditions: cited from earlier work
[5] = molecular target: translation complex A site; conditions: ribosome; cited from earlier work
[6] = molecular target: penicillin-binding protein 2a (PBP2a) (Staphylococcus aureus (MRSA)) (UniProt P07944); experiment: relative IC50: competition with biotinylated ampicillin for labelling of pure PBP2a, streptavidin-HRP blot
[7] = molecular target: penicillin-binding protein 2a (PBP2a) (Staphylococcus aureus (MRSA)) (UniProt P07944); experiment: ratio of relative IC50 values against the 6-aminopenicillanic acid reference, biotinylated ampicillin competition on PBP2a
[8] = molecular target: penicillin-binding protein 2a (PBP2a) (Staphylococcus aureus (MRSA)) (UniProt P07944); experiment: relative IC50: conjugate pre-incubated with pure PBP2a 15 min at 37 C, then competition with biotinylated ampicillin, SDS-PAGE and streptavidin-HRP blot

penicillin-binding protein 2a (PBP2a) (Staphylococcus aureus (MRSA)), sequence (P07944 23-670): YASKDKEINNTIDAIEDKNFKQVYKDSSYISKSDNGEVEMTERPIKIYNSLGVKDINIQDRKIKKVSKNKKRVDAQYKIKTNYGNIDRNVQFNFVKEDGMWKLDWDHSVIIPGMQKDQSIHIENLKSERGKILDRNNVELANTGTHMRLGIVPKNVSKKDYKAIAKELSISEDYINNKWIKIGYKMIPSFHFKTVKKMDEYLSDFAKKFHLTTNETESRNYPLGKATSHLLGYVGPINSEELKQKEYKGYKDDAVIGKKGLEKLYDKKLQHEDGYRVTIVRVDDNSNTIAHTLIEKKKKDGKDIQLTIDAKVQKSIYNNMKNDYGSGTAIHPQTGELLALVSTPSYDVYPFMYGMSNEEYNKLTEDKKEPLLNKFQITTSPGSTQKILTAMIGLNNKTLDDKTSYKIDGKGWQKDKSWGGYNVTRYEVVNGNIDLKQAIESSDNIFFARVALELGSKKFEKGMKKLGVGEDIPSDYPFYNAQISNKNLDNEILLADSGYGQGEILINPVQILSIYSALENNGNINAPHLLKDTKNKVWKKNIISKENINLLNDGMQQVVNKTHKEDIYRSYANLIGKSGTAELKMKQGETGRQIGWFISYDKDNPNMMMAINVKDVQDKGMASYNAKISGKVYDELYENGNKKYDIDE
T1 sequence (P07944 whole entry, the tested form may be a part): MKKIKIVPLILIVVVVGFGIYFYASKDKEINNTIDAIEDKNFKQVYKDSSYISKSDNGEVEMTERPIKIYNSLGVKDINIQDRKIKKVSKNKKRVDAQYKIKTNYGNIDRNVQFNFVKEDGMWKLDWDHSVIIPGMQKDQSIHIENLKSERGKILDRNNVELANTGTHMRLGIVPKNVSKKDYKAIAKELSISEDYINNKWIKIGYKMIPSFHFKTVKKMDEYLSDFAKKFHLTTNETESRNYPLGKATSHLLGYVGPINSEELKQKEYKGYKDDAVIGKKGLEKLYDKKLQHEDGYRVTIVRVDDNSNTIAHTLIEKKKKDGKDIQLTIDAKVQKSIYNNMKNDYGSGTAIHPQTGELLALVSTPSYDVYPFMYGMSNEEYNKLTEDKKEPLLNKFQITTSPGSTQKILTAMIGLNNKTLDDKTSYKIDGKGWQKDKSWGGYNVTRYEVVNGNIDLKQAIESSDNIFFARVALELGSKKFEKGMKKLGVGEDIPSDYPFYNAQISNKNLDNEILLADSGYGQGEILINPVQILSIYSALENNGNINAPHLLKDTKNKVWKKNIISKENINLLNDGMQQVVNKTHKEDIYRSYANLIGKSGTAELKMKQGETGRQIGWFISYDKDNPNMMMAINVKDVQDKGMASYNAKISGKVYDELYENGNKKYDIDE
Crk N terminal SH3 domain, sequence (P46108 132-192 limits assumed): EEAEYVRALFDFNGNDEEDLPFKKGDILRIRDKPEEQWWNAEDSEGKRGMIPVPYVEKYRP
Grb2 N terminal SH3 domain, sequence (P62993 1-58 limits assumed): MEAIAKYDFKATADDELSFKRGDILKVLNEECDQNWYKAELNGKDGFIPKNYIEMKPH

With `CC[C@H](C)[C@H](NC(=O)[C@H](CSCC(=O)N[C@@H]1C(=O)N2[C@@H]1SC(C)(C)[C@@H]2C(=O)O)NC(=O)[C@H](CC(N)=O)NC(=O)[C@H](CO)NC(=O)[C@H](CC(N)=O)NC(=O)[C@H](CCCNC(=N)N)NC(=O)[C@@H](N)CC(C)C)C(=O)N[C@@H](CCCNC(=N)N)C(=O)N[C@@H](Cc1c[nH]cn1)C(=O)N[C@@H](Cc1ccccc1)C(=O)N[C@@H](Cc1ccccc1)C(=O)O` [LRNSNC(pen)IRHFF] (H-LRNSNC(X1)IRHFF-OH; N-terminus and C-terminus assumed) the “improvement as compared to 6-APA” value ([1]; PBP2a inhibition) was “about 100 fold”.

In the case of `CNCC(=O)O` [N-methyl glycine], the “change in the binding” value [2] is listed as “little change” and the “change in the binding” value [3] is listed as “little change”.

In the case of `CC1(C)S[C@@H]2[C@H](NC(=O)Cc3ccccc3)C(=O)N2[C@H]1C(=O)O` [benzyl penicillin], the “rate constant for covalent attachment to PBP2a (k2)” value [4] is listed as 0.22 s⁻¹.

For `COc1cccc(OC)c1C(=O)N[C@@H]1C(=O)N2[C@@H]1SC(C)(C)[C@@H]2C(=O)O` [methicillin], the “rate constant for covalent attachment to PBP2a (k2)” value [4] is given as 0.0083 s⁻¹.

In the case of `COc1ccc(C[C@H](N)C(=O)N[C@H]2[C@@H](O)[C@H](n3cnc4c(N(C)C)ncnc43)O[C@@H]2CO)cc1` [puromycin], the Kd [5] is given as 0.1 mM.

Molecule `CC[C@H](C)[C@H](NC(=O)[C@H](CSCC(=O)O)NC(=O)[C@H](CC(N)=O)NC(=O)[C@H](CO)NC(=O)[C@H](CC(N)=O)NC(=O)[C@H](CCCNC(=N)N)NC(=O)[C@@H](N)CC(C)C)C(=O)N[C@@H](CCCNC(=N)N)C(=O)N[C@@H](Cc1c[nH]cn1)C(=O)N[C@@H](Cc1ccccc1)C(=O)N[C@@H](Cc1ccccc1)C(=O)O` [unmodified peptide] (H-LRNSNC(Carboxymethyl)IRHFF-OH) has an IC50 [1] greater than 35 mM.

Molecule “LRNSNC(COOH)IRHFF (residues 2-12 of SEQ ID NO: 5) (peptide)” has an IC50 [6] greater than 35 mM.

For “LRNSNC(pen)IRHFF (residues 2-12 of SEQ ID NO: 5) (peptide)”, the fold improvement compared to 6-APA [7] was 100 fold and the IC50 [8] was 7 mM.

Reference: US20030235851A1, “Methods of using sense and/or nonsense suppression to make nucleic acid-peptide display libraries containing peptides with unnatural amino acid residues” (priority 2002, published 2003)
